# Assay results from publication PMC7174661, “Patch-Clamp Analysis of the Mitochondrial H^+ Leak in Brown and Beige Fat” (Frontiers in Physiology, 2020).
# Target: T1, UCP1 (Mus musculus, UniProt P12242)
# T1 construct: native full-length protein in the inner mitochondrial membrane; mitoplasts from brown (or beige) fat; no tags
# T1 sequence (P12242 1-307): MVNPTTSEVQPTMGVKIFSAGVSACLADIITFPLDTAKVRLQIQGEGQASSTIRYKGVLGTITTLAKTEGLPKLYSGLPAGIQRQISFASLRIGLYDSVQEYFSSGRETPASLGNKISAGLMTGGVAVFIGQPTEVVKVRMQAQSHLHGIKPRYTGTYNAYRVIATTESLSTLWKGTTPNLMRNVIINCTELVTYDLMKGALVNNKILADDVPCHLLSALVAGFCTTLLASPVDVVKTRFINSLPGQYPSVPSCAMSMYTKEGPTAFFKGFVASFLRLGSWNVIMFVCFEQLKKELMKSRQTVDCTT
# Experiment: whole-mitoplast patch-clamp, inhibition of H+ current
# Type: biochemical
# Conditions: Mg2+-free ATP, cytosolic side; current activated by 0.2 mM oleic acid / 10 mM MβCD; symmetrical pH 7.0; competitive with fatty acid; figure reproduced from the same laboratory's Fedorenko et al. 2012
smiles,measurement,value
Nc1ncnc2c1ncn2[C@@H]1O[C@H](COP(=O)(O)OP(=O)(O)OP(=O)(O)O)[C@@H](O)[C@H]1O [ATP],IC50,2100 ± 100 nM
